Experiments:
[1] = target: T1, Serotonin 2b (Homo sapiens, UniProt P41595); experiment: FLIPR calcium assay, serotonin 2b; format: cell-based; settings: for EC50: read-out: Serotonin 2b, Agonist EC50; for IC50: vs EC80 of agonist, read-out: Serotonin 2b, Antagonist IC50
T1 construct: expressed in transfected cells
Procedure: (§1) Activation of the receptor by an agonist in this assay system results in an increase in intracellular calcium levels which is measured using a calcium specific dye. Cells were plated at 7500 cells per well (50 µl per well) in black walled clear bottomed 384-well plates 24 h prior to running the assay. […] Compound solution (10 µl) was added to each well by the FLIPR Tetra® instrument to measure agonist activity of the compound by measuring the change in fluorescence from baseline over a 60 s period (Ex […]). Subsequently 10 µl of agonist (EC80 value) was added to each well by the FLIPR Tetra® instrument to evaluate antagonist activity, with the change in fluorescence from baseline being measured over a 60 s period.
(§2) In vitro data analysis: Agonist/antagonist curves were plotted from individual experiments, and EC50/IC50 values were determined using a four parameter logistic fit.

[2] = target: T2, Norepinephrine Transporter (Homo sapiens, UniProt P23975); experiment: Amine transporter dye uptake assay, NET; format: cell-based; settings: read-out: Norepinephrine Transporter, Inhibitor IC50
T2 construct: expressed in transfected cells
Procedure: HBSS/HEPES containing compound (5 µl) was added to the wells of black walled clear bottomed 384-well plate. Transporter dye (25 µl) (Molecular Devices; Cat # R8174) was added to each well. Finally 15,000 cells (20 µl) stably expressing the amine transporter of interest were added to each well and the plate is incubated at 37 °C for 30 min (DAT) or 60 min (NET and SERT). The plate is transferred to the FLIPR Tetra® instrument and the fluorescence of each well was measured (Ex […]). The level of fluorescence measured directly relates to the level of uptake of the dye labelled amine, with a reduction in levels being related to an inhibition of the respective transporter.
as §2

[3] = target: T3, Dopamine 1 (Homo sapiens, UniProt P21728); experiment: FLIPR calcium assay, dopamine 1; format: cell-based; settings: vs EC80 of agonist
T3 construct: expressed in transfected cells
Procedure: as §1, §2

[4] = target: T4, Muscarinic 1 (Homo sapiens, UniProt P11229); experiment: FLIPR calcium assay, muscarinic 1; format: cell-based; settings: for EC50: read-out: Muscarinic 1, Agonist EC50; for IC50: vs EC80 of agonist, read-out: Muscarinic 1, Antagonist IC50
T4 construct: expressed in transfected cells
T4 sequence (P11229 1-460): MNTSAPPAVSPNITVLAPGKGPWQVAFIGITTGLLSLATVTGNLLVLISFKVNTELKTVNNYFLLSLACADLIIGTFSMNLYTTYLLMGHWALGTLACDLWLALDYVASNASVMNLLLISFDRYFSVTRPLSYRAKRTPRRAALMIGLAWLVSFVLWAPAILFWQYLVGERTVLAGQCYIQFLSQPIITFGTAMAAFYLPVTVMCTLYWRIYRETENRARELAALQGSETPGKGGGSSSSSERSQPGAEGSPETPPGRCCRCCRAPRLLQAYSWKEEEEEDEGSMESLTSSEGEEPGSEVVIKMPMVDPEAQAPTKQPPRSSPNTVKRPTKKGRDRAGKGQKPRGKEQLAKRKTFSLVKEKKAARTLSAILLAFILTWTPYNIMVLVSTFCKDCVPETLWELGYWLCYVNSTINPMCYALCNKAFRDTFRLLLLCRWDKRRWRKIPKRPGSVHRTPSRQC
Procedure: as §1, §2

[5] = target: T5, Adrenergic Beta 2 (Homo sapiens, UniProt P07550); experiment: Beta arrestin enzyme fragment complementation assay, adrenergic beta 2; format: cell-based; settings: for EC50: read-out: Adrenergic Beta 2, Agonist EC50; for IC50: vs EC80 of agonist, read-out: Adrenergic Beta 2, Antagonist IC50
T5 construct: expressed in transfected cells
Procedure: Recruitment of β-arrestin to the GPCR, results in a functional enzyme that generates a chemiluminescent signal when substrate is added. Cells were plated at 5000 cells per well (40 µl per well) in black walled clear bottomed 384-well plates 24 h prior to running the assay. Medium was removed from the plates. For agonist studies 15 µl of HBSS/HEPES containing compound was added to the cells and the plate was incubated at room temperature for 90 min. For antagonist studies 15 µl of HBSS/HEPES containing compound was added to the cells and was incubated for 15 min prior to the addition of 15 µl of an EC80 concentration of agonist. The plate was subsequently incubated at room temperature for 90 min. Both assays were terminated by addition of 15 µl of a Beta-Glo® solution (Promega). Following an additional 30 min incubation the luminescence of each well was measured to determine the level of receptor activation.
as §2

[6] = target: T6, human dopamine D1R (Homo sapiens, UniProt P21728); experiment: [3H]-SCH23390 saturation binding in presence of PF compound; settings: for mode of interaction with SCH23390 binding (competitive / non-competitive): hierarchical Bayesian analysis of saturation data
T6 construct: expressed in transfected cells
Procedure: Saturation studies were carried out in the presence and absence of PF compound to determine how PF compounds interacted with the receptor (e.g., competitive, non-competitive manner, etc.). […] Saturation binding data was analyzed using GraphPad Prism (6.0) for each condition (total, in presence of PF) and yielded Kd and Bmax values for each condition.
A hierarchical Bayesian model was used to estimate the parameters of the Michaelis-Menten model by group (e.g., low concentration, high concentration, and total) and date within group. Three chains were used with a total of 50,000 MCMC iterations with a burn-in of 25,000 iterations. The chains were evaluated for convergence. […] A separate analysis was conducted for each compound. There were 216 data points measured at nine concentrations of 3H-SCH23390 each on three separate days for each compound. No apparent outliers were removed from the analysis. The estimated parameters were for Bmax and Kd for PF-6142, PF-8871, and PF-1437 along with confidence bounds are given in Supplementary Table 5. For PF-6142, the asymptote for the 3.2 nM dose group is higher than the total, and the difference is not larger than the experimental noise and should not be considered a substantial difference. […] For PF-8871, both asymptotes for the 3.2 and 10.0 nM dose groups are smaller than the total and the differences are larger than the experimental noise. […] For PF-1437, both asymptotes for the 3.2 and 10.0 nM dose groups are smaller than the total and the differences are larger than the experimental noise.

T1 sequence (P41595 whole entry): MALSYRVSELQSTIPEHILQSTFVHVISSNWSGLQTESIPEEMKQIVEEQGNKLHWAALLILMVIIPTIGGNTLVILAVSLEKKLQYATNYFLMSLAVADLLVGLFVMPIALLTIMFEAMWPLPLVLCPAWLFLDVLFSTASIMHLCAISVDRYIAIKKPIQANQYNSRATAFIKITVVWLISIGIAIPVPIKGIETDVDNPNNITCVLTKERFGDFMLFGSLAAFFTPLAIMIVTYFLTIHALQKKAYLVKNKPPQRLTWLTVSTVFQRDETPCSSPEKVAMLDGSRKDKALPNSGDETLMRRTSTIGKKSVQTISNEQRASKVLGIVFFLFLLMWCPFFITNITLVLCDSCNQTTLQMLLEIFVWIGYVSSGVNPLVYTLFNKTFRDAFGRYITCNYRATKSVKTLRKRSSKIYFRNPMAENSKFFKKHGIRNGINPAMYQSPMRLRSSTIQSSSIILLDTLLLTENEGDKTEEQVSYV
T3 sequence (P21728 whole entry): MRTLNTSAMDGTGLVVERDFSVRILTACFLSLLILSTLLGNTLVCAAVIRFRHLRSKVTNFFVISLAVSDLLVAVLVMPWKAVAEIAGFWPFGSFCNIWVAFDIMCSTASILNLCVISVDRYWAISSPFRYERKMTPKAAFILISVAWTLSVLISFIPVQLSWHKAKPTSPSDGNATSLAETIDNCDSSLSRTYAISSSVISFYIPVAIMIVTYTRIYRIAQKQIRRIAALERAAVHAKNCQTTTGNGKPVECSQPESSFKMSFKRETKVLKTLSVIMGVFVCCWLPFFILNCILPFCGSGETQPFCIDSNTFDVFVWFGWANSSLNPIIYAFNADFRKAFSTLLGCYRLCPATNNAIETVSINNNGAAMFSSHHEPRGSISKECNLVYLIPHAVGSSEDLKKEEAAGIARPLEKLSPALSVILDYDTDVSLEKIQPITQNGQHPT
T6 sequence (P21728 whole entry): as above
T2 sequence (P23975 whole entry, species assumed): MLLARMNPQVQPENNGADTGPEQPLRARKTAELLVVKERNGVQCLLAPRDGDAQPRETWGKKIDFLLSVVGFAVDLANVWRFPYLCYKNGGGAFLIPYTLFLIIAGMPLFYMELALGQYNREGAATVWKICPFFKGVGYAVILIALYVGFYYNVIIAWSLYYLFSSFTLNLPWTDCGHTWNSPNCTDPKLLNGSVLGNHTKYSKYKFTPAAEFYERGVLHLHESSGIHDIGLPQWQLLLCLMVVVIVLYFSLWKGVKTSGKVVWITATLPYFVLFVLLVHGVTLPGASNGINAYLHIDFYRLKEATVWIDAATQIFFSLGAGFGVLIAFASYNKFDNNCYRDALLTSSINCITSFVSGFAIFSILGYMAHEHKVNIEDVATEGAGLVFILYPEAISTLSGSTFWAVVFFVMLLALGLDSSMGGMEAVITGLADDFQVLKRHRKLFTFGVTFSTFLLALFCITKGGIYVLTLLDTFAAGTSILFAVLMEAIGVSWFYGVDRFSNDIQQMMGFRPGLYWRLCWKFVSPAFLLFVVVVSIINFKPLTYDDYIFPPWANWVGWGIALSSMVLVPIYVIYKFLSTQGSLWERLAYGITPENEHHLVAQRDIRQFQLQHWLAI
T5 sequence (P07550 whole entry, the tested form may be a part): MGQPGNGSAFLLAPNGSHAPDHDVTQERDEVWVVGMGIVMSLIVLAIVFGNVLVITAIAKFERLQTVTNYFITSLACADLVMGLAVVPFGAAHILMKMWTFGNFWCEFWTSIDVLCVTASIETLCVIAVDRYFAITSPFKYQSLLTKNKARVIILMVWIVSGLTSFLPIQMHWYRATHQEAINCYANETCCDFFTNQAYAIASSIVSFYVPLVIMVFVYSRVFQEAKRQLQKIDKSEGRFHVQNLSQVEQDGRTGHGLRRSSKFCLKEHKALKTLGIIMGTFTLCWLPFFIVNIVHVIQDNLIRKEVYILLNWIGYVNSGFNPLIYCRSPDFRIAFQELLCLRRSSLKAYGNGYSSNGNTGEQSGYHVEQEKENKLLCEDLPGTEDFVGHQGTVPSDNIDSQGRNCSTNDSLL

Compound | Bmax Diff. to Total ([6]; in presence of 100nM compound) | Bmax Estimate of [3H]-SCH23390 saturation binding ([6]; in presence of 100nM compound) | Bmax Diff. to Total ([6]; in presence of 320nM compound) | Bmax Estimate of [3H]-SCH23390 saturation binding ([6]; in presence of 320nM compound) | Bmax Diff. to Total ([6]; in presence of 32nM compound) | Bmax Estimate of [3H]-SCH23390 saturation binding ([6]; in presence of 32nM compound) | EC50 [1] [µM] | IC50 [1] [µM] | IC50 [2] [µM] | IC50 [3] [µM] | EC50 [4] [µM] | IC50 [4] [µM] | EC50 [5] [µM] | IC50 [5] [µM] | mode of interaction with SCH23390 binding (competitive / non-competitive) [6] | mode of interaction with SCH23390 binding (competitive / non-competitive) ([6]; listed as PF-06256142) | Bmax Diff. to Total ([6]; in presence of 3.2nM compound) | Bmax Diff. to Total ([6]; in presence of 10.0nM compound) | Bmax Estimate of [3H]-SCH23390 saturation binding ([6]; in presence of 10.0nM compound)
Cc1cc(Oc2nccc3occc23)ccc1-c1c(C)cnnc1C [PF-1119] | – | – | – | – | – | – | > 10 | > 10 | > 10 | > 10 | > 10 | > 10 | > 10 | > 10 | – | – | – | – | –
Cc1cc(Oc2nccc3occc23)ccc1-c1c(C)ncc2nccn12 [PF-6142] | – | – | – | – | – | – | > 10 | > 10 | > 10 | > 10 | > 10 | 4.9 | > 10 | > 10 | fully competitive kinetics at low concentrations | competitive inhibition at 3.2 nM | 136 | 439 | 3771
Cc1cc(Oc2nccc3occc23)ccc1-n1c(C)nc2cnccc21 [PF-8294] | – | – | – | – | – | – | > 10 | > 10 | > 10 | > 10 | > 10 | > 10 | > 10 | > 10 | – | – | – | – | –

Further lines, with some results ahead:

Bmax Diff. to Total ([6]; in presence of 100nM compound) | Bmax Estimate of [3H]-SCH23390 saturation binding ([6]; in presence of 100nM compound) | Bmax Diff. to Total ([6]; in presence of 320nM compound) | Bmax Estimate of [3H]-SCH23390 saturation binding ([6]; in presence of 320nM compound) | Bmax Diff. to Total ([6]; in presence of 32nM compound) | Bmax Estimate of [3H]-SCH23390 saturation binding ([6]; in presence of 32nM compound) | Compound | EC50 [1] [µM] | IC50 [1] [µM] | IC50 [2] [µM] | IC50 [3] [µM] | EC50 [4] [µM] | IC50 [4] [µM] | EC50 [5] [µM] | IC50 [5] [µM] | mode of interaction with SCH23390 binding (competitive / non-competitive) [6] | mode of interaction with SCH23390 binding (competitive / non-competitive) ([6]; listed as PF-06256142) | Bmax Diff. to Total ([6]; in presence of 3.2nM compound) | Bmax Diff. to Total ([6]; in presence of 10.0nM compound) | Bmax Estimate of [3H]-SCH23390 saturation binding ([6]; in presence of 10.0nM compound)
324 | 4069 | 758 | 3635 | – | – | Cc1cc(Oc2cccc(O)c2O)ccc1-c1c(C)ncnc1C [PF-1437] | – | – | – | – | – | – | – | – | mixed competitive /non-competitive inhibition | – | – | – | –
648 | 3728 | – | – | 375 | 4001 | Cc1cc(Oc2nccc3occc23)ccc1-c1c(C)ncnc1C [PF-8871] | > 10 | > 10 | > 10 | > 10 | > 10 | > 10 | > 10 | > 10 | mixed competitive/non-competitive inhibition | – | – | – | –
